Measured values as given in ChEMBL document CHEMBL5335783, “Inhibitory activity of catecholic phosphonic and phosphinic acids against Helicobacter pylori ureolysis” (Eur J Med Chem, 2023).
The source made the active and inactive calls. No cut-off for these calls is given here.

Experiments:
[1] = Cytotoxicity against mouse Balb/3T3-L1 cells assessed as reduction in cell proliferation at 100 uM incubated for 72 hrs by SRB assay relative to control; format: toxicity, cell-based; settings: read-out: Activity
[2] = Cytotoxicity against mouse Balb/3T3-L1 cells assessed as reduction in cell proliferation at 31.4 uM incubated for 72 hrs by SRB assay relative to control; format: toxicity, cell-based; settings: read-out: Activity
[3] = Cytotoxicity against mouse Balb/3T3-L1 cells assessed as reduction in cell proliferation at 10 uM incubated for 72 hrs by SRB assay relative to control; format: toxicity, cell-based; settings: read-out: Activity
[4] = Cytotoxicity against mouse Balb/3T3-L1 cells assessed as reduction in cell proliferation at 3.14 uM incubated for 72 hrs by SRB assay relative to control; format: toxicity, cell-based; set-up: scale not given: the % may be the effect or the level left; settings: balb/3t3-l1, 72 h
[5] = Cytotoxicity against mouse Balb/3T3-L1 cells assessed as reduction in cell proliferation at 1 uM incubated for 72 hrs by SRB assay relative to control; format: toxicity, cell-based; settings: read-out: Activity
[6] = Cytotoxicity against mouse Balb/3T3-L1 cells assessed as reduction in cell proliferation at 0.31 uM incubated for 72 hrs by SRB assay relative to control; format: toxicity, cell-based; settings: read-out: Activity
[7] = Cytotoxicity against mouse Balb/3T3-L1 cells assessed as reduction in cell proliferation at 0.1 uM incubated for 72 hrs by SRB assay relative to control; format: toxicity, cell-based; set-up: scale not given: the % may be the effect or the level left; settings: balb/3t3-l1, 72 h
[8] = Cytotoxicity against HEK293 cells assessed as reduction in cell proliferation at 100 uM incubated for 72 hrs by SRB assay relative to control; format: toxicity, cell-based; settings: human, read-out: Activity
[9] = Cytotoxicity against HEK293 cells assessed as reduction in cell proliferation at 31.4 uM incubated for 72 hrs by SRB assay relative to control; format: toxicity, cell-based; settings: human, read-out: Activity
HEK293 [10] = assay: Cytotoxicity against HEK293 cells assessed as reduction in cell proliferation at 10 uM incubated for 72 hrs by SRB assay relative to control; format: toxicity, cell-based; set-up: scale not given: the % may be the effect or the level left; settings: human, hek293, 72 h
[11] = Cytotoxicity against HEK293 cells assessed as reduction in cell proliferation at 3.14 uM incubated for 72 hrs by SRB assay relative to control; format: toxicity, cell-based; settings: human, read-out: Activity
[12] = Cytotoxicity against HEK293 cells assessed as reduction in cell proliferation at 1 uM incubated for 72 hrs by SRB assay relative to control; format: toxicity, cell-based; settings: human, read-out: Activity
HEK293 [13] = assay: Cytotoxicity against HEK293 cells assessed as reduction in cell proliferation at 0.31 uM incubated for 72 hrs by SRB assay relative to control; format: toxicity, cell-based; set-up: scale not given: the % may be the effect or the level left; settings: human, hek293, 72 h
[14] = Cytotoxicity against HEK293 cells assessed as reduction in cell proliferation at 0.1 uM incubated for 72 hrs by SRB assay relative to control; format: toxicity, cell-based; settings: human, read-out: Activity
[15] = Inhibition of Sporosarcina pasteurii CCM 2056 native urease using urea as substrate measured for 1.5 hrs by colorimetric method
[16] = Inhibition of Sporosarcina pasteurii CCM 2056 native urease using urea as substrate preincubated for 1 hr followed by substrate addition and measured for 1.5 hrs by colorimetric method
[17] = Inhibition of -ureolysis in live Helicobacter pylori Tx30a (ATCC 51932) in presence of urea by absorbance based analysis; format: functional
Sporosarcina pasteurii [18] = assay: Inhibition of Sporosarcina pasteurii CCM 2056 native urease using urea as substrate in presence of DTT measured for 1.5 hrs by colorimetric method
[19] = Stability of compound in methanol assessed as rate of hydrolysis measured after 3 days by NMR analysis; format: physicochemical; settings: time 3 day, read-out: Activity
Sporosarcina pasteurii [20] = assay: Inhibition of Sporosarcina pasteurii CCM 2056 native urease using urea as substrate by colorimetric method; settings: TDE = time-dependent effect
Sporosarcina pasteurii [21] = assay: Competitive inhibition of Sporosarcina pasteurii CCM 2056 native urease using urea as substrate in presence of DTT measured for 1.5 hrs by colorimetric method

Row | SMILES | inhibition at 72 h, 100 µM [1] [%] | inhibition at 72 h, 31.4 µM [2] [%] | inhibition at 72 h, 10 µM [3] [%] | Activity [4] [%] | inhibition at 72 h, 1 µM [5] [%] | inhibition at 72 h, 0.31 µM [6] [%] | Activity [7] [%] | inhibition at 72 h, 100 µM [8] [%] | inhibition at 72 h, 31.4 µM [9] [%] | Activity (HEK293 [10]) [%] | inhibition at 72 h, 3.14 µM [11] [%] | inhibition at 72 h, 1 µM [12] [%] | Activity (HEK293 [13]) [%] | inhibition at 72 h, 0.1 µM [14] [%] | Ki [15] [µM] | Ki [16] [µM] | IC50 [17] [µM] | inhibition (Sporosarcina pasteurii [18]) | further results
1 | O=P(O)(O)CCc1ccc(O)c(O)c1 | 17.8 | 18.3 | 12.7 | 10.6 | 15 | 5.9 | 0.4 | 15.7 | 15.6 | 8.4 | 0.1 | -0.9 | -3.4 | 2.2 | 17.7 | 9.1 | 26.6 | Active | 
2 | COC(=O)CCP(=O)(O)CC(C(=O)OC)c1ccc(O)c(O)c1 (stereo not given) |  |  |  |  |  |  |  |  |  |  |  |  |  |  | 295 | 228 | 412 | Active | degraded at 72 h [19]: < 5%
3 | O=C(O)C(CP(=O)(O)CC(C(=O)O)c1ccc(O)c(O)c1)c1ccc(O)c(O)c1 (mixture of isomers) |  |  |  |  |  |  |  |  |  |  |  |  |  |  | 16 | 6.8 | 13.1 | inactive | 
4 | COC(=O)C(CP(=O)(O)CC(C(=O)OC)c1ccc(O)c(O)c1)c1ccc(O)c(O)c1 (mixture of isomers) |  |  |  |  |  |  |  |  |  |  |  |  |  |  | 223 | 7.55 | 106 | inactive | 
5 | O=C(O)CCP(=O)(O)CC(C(=O)O)c1ccc(O)c(O)c1 (racemic) | 33.2 | 25.8 | 17.4 | 17.5 | 13.4 | 4.9 | 8 | 7.7 | 10.4 | 16.3 | 10.1 | 8.1 | 8.5 | 13.5 | 298 | 6.13 | 9.28 | inactive | 
6 | O=C(O)C(C[PH](=O)O)c1ccc(O)c(O)c1 (racemic) |  |  |  |  |  |  |  |  |  |  |  |  |  |  | 79.3 | 58.8 | 10.5 | inactive | inhibition (Sporosarcina pasteurii [20]): Tde
7 | O=C(O)C(CP(=O)(O)O)c1cc(O)c(O)cc1Br (racemic) |  |  |  |  |  |  |  |  |  |  |  |  |  |  | 41.9 | 34.8 | 50.3 | Active | inhibition (Sporosarcina pasteurii [21]): Active
8 | O=C(O)C(CP(=O)(O)O)c1ccc(O)c(O)c1 (racemic) | 34.9 | 24.9 | 22.1 | 20.1 | 18.6 | 15.6 | 6.7 | 7.8 | -3 | -3 | -0.2 | -0.8 | -1.6 | 1.4 | 400 | 2.36 | 0.75 | inactive | inhibition (Sporosarcina pasteurii [20]): Tde
9 | COC(=O)C(CP(=O)(O)O)c1ccc(O)c(O)c1 (racemic) |  |  |  |  |  |  |  |  |  |  |  |  |  |  | 107 | 78 | 31.4 | Active | degraded at 72 h [19]: < 5%
10 | CC(=O)NO [ACETOHYDROXAMIC ACID] |  |  |  |  |  |  |  |  |  |  |  |  |  |  |  | 3.3 | 156 |  | 
